The experiment relates to artificial thrombosis. Put plainly: Fibrinolysis of artificial thrombosis (Chandler's method) with ultrasonic catheter. Format: biochemical, human. The conditions noted are these: average of two tests; for time for achieving 20% fibrinolysis: FIG. 4, blood from one person. The protocol:
An artificial thrombosis was formed by Chandler's method. A sample of blood (1 ml) collected from a healthy person was entered into a flexible tube (inside diameter 3 mm, length 265 mm) and calcium chloride was added. The tube was shaped like a loop and was rotated at 12 r.p.m. for 20 minutes to give an artificial thrombosis model.
A ceramic ultrasonic element (width 2 mm, length 5 mm, thickness 1 mm) was inserted into the tip of a catheter (diameter 2 mm), and an oscillating element was connected to an oscillator provided outside with a fine connector passed through the catheter. A fine tube for pouring a test solution was provided at an opening opposite to the opening of the catheter end.
The artificial thrombosis prepared as described above was added to a test tube together with blood, and the ultrasonic catheter was inserted into the test tube so that the end of the catheter was set close to the portion of the artificial thrombosis (at a distance of about 5 mm). To the test tube was added a mixture of urokinase and a booster prepared as in Example 1 at a rate of 1 ml per minute, wherein urokinase (concentration 1200 Ill/ml) and the booster were mixed immediately before pouring at a mixing ratio of 1:1 by mass. The mixture was refluxed while keeping the volume of the test solution at a constant level by removing excess volume of the solution by suction.
The mixture was exposed to the ultrasound at a frequency of 170 KHz to by a pulse method (exposure for 2 seconds followed by termination of exposure for 4 seconds) for 2 minutes. Total exposure time was 40 seconds). After the exposure, the ultrasonic catheter was removed from the test tube, and the mixture was incubated at 37° C. for between 5 and 120 minutes, washed with a physiological saline solution several times and dried overnight. Thereafter, the dried mixture was weighed. […]
The rate of fibrinolysis was calculated by the following equation: Fibrinolysis rate (%)=(A−B)/A×100, wherein • A is the weight of thrombosis in control; and • B is the weight of thrombosis treated. […]

As for urokinase, the “time for achieving 20% fibrinolysis” value (with exposure of ultrasound 170 KHz pulsed, 40 s total) amounted to 30 min and the “time for achieving 20% fibrinolysis” value (without exposure of ultrasound, urokinase 1200 IU/ml) was “about 45 minutes”. Moreover, where the note is “FIG. 5, with exposure of ultrasound, energy reduced by 15%, blood from another person”, the “treatment time at which 50% fibrinolysis was achieved” value worked out at 60 min.

(Values after US20070183976A1, “Composition for ultrasound therapy and pharmaceutical liquid composition containing the same” (IMARX THERAPEUTICS, INC., priority 2006, published 2007).)
